{"source": "patent US9890147B2", "about": "(BAYER PHARMA AKTIENGESELLSCHAFT, priority 2012, dated 2018)", "key": {"MV4-11 cells": {"tested_on": "MV4-11 cells", "test": "Cell proliferation assay (alamarBlue), MV4-11", "type": "cell-based", "conditions": "Homo sapiens, 72 hours incubation, inhibition of cell proliferation", "description": "(§1) In accordance with the invention, the capability of the substances to inhibit cell proliferation was determined Cell viability was determined using the alamarBlue® reagent (Invitrogen) in a Victor X3 Multilabel Reader (Perkin Elmer). The excitation wavelength was 530 nm and the emission wavelenth […].\nThe MV4-11 cells (ATCC, CRL 9591) were sown at a concentration of 5000 cells/well in 100 μl growth medium (RPMI1640, 10% FCS) on 96-well microtitre plates.\n(§2) After an overnight incubation at 37° C., the fluorescence values (CI values) were determined. The plates were then treated with various substance dilutions (1E-5 M, 3E-6 M, 1E-6M, 3E-7 M, 1E-7 M, 3E-8 M, 1E-8 M) and incubated at 37° C. for 72 (MV4-11-, LOX-IMVI cells), 96 (MOLM-13-, B16F10-, MDA-MB-431-, Caov-3 cells), 120 (MOLP-8-, KMS-12-PE cells) or 168 (LAPC-4 cells) hours. The fluorescence values (CO values) were then determined. For the data analysis, the CI values were subtracted from the CO values and the results were compared between cells treated with different dilutions of the substance or with buffer solution only. These were used to calculate the IC 50 values (substance concentration required for 50% inhibition of cell proliferation)."}, "BRD4 (BD1)": {"biological_target": "T1, BRD4 (BD1) (Homo sapiens, UniProt O60885)", "T1 construct": "with relatively long constructs also being possible, preferably amino acids 44-168; made in house; host or cells: E. coli", "test": "Binding assay BRD4/acetylated peptide H4 (TR-FRET protein-protein interaction assay)", "procedure,_shortened": "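Displacement of biotin-Ac-H4 peptide from His6-tagged BRD4(BD1), final usually 10 nM, read as Eu-streptavidin to anti-His-XL665 TR-FRET (665/620 nm). Compounds tested at 11 doses up to 20 μM in duplicate, pH 7.5 HEPES, 22 °C then 4 °C incubation; IC50 by 4-parameter regression.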"}, "MOLM-13 cells": {"tested_on": "MOLM-13 cells", "test": "Cell proliferation assay (alamarBlue), MOLM-13", "type": "cell-based", "conditions": "Homo sapiens, 96 hours incubation, inhibition of cell proliferation", "procedure,_shortened": "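IC50 = concentration giving 50% growth inhibition relative to buffer-treated cells, after subtracting baseline fluorescence taken before dosing. Compound applied at 1E-5 to 1E-8 M for 96 h at 37 °C in RPMI1640 with 10% FCS; alamarBlue signal at 530/590 nm.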"}, "KMS-12-PE cells": {"tested_on": "KMS-12-PE cells", "test": "Cell proliferation assay (alamarBlue), KMS-12-PE", "type": "cell-based", "conditions": "Homo sapiens, 120 hours incubation, inhibition of cell proliferation", "description": "as §1\nThe KMS-12-PE cells (DSMZ, ACC 606) were sown at a concentration of 4000 cells/well in 100 μl growth medium (RPMI1640, 20% FCS) on 96-well microtitre plates.\nas §2"}, "MOLP-8 cells": {"tested_on": "MOLP-8 cells", "test": "Cell proliferation assay (alamarBlue), MOLP-8", "type": "cell-based", "conditions": "Homo sapiens, 120 hours incubation, inhibition of cell proliferation", "description": "as §1\nThe MOLP-8 cells (DSMZ, ACC 569) were sown at a concentration of 4000 cells/well in 100 μl growth medium (RPMI1640, 20% FCS) on 96-well microtitre plates.\nas §2"}, "Caov-3 cells": {"tested_on": "Caov-3 cells", "test": "Cell proliferation assay (alamarBlue), Caov-3", "type": "cell-based", "conditions": "Homo sapiens; inhibition of cell proliferation, Caov-3 (ovarian carcinoma), 96 hours", "description": "as §1\nThe MDA-MB-231 cells (DSMZ, ACC 732) were sown at a concentration of 4000 cells/well in 100 μl growth medium (DMEM/Ham's F12 medium, 10% FCS) on 96-well microtitre plates. The Caov-3 cells (ATCC, HTB-75) were sown at a concentration of 2000 cells/well in 100 μl growth medium (MEM Earle's medium, 10% FCS) on 96-well microtitre plates.\nas §2"}, "LOX-IMVI cells": {"tested_on": "LOX-IMVI cells", "test": "Cell proliferation assay (alamarBlue), LOX-IMVI", "type": "cell-based", "conditions": "Homo sapiens, 72 hours incubation, inhibition of cell proliferation", "description": "as §1\nThe LOX-IMVI cells (NCI-60) were sown at a concentration of 1000 cells/well in 100 μl growth medium (RPMI1640, 10% FCS) on 96-well microtitre plates.\nas §2"}}, "data": [{"smiles": "CNC(=O)N1N=C(c2ccc(N3CCN(C(C)=O)CC3)cc2)c2cc(OC)c(OC)cc2CC1C", "note": "(racemic) [Example 132, (±)-1-[4-(4-acetylpiperazin-1-yl)phenyl]-7,8-dimethoxy-N,4-dimethyl-4,5-dihydro-3H-2,3-benzodiazepine-3-carboxamide]", "values": [{"measurement": "IC50", "setting": "MV4-11 cells", "value": 130, "unit": "nM"}, {"measurement": "IC50", "setting": "BRD4 (BD1)", "value": 30, "unit": "nM"}, {"measurement": "IC50", "setting": "MOLM-13 cells", "value": 200, "unit": "nM"}, {"measurement": "IC50", "setting": "KMS-12-PE cells", "value": 110, "unit": "nM"}, {"measurement": "IC50", "setting": "MOLP-8 cells", "value": 120, "unit": "nM"}, {"measurement": "IC50", "setting": "Caov-3 cells", "value": 320, "unit": "nM"}, {"measurement": "IC50", "setting": "LOX-IMVI cells", "value": 420, "unit": "nM"}]}, {"smiles": "CNC(=O)N1N=C(c2ccc(N3CCN(C(=O)C(F)(F)F)CC3)cc2)c2cc(OC)c(OC)cc2CC1C", "note": "(racemic) [Example 133, (±)-7,8-dimethoxy-N,4-dimethyl-1-{4-[4-(trifluoroacetyl)piperazin-1-yl]phenyl}-4,5-dihydro-3H-2,3-benzodiazepine-3-carboxamide]", "values": [{"measurement": "IC50", "setting": "MV4-11 cells", "value": 80, "unit": "nM"}, {"measurement": "IC50", "setting": "BRD4 (BD1)", "value": 50, "unit": "nM"}, {"measurement": "IC50", "setting": "MOLM-13 cells", "value": 180, "unit": "nM"}, {"measurement": "IC50", "setting": "KMS-12-PE cells", "value": 80, "unit": "nM"}, {"measurement": "IC50", "setting": "MOLP-8 cells", "value": 70, "unit": "nM"}, {"measurement": "IC50", "setting": "Caov-3 cells", "value": 180, "unit": "nM"}, {"measurement": "IC50", "setting": "LOX-IMVI cells", "value": 170, "unit": "nM"}]}, {"smiles": "CNC(=O)N1N=C(c2ccc(N3CCN(S(C)(=O)=O)CC3)cc2)c2cc(OC)c(OC)cc2CC1C", "note": "(racemic) [Example 135, (±)-7,8-dimethoxy-N,4-dimethyl-1-{4-[4-(methylsulphonyl)piperazin-1-yl]phenyl}-4,5-dihydro-3H-2,3-benzodiazepine-3-carboxamide]", "values": [{"measurement": "IC50", "setting": "MV4-11 cells", "value": 120, "unit": "nM"}, {"measurement": "IC50", "setting": "BRD4 (BD1)", "value": 50, "unit": "nM"}, {"measurement": "IC50", "setting": "MOLM-13 cells", "value": 200, "unit": "nM"}, {"measurement": "IC50", "setting": "KMS-12-PE cells", "value": 120, "unit": "nM"}, {"measurement": "IC50", "setting": "MOLP-8 cells", "value": 130, "unit": "nM"}, {"measurement": "IC50", "setting": "Caov-3 cells", "value": 300, "unit": "nM"}, {"measurement": "IC50", "setting": "LOX-IMVI cells", "value": 360, "unit": "nM"}]}, {"smiles": "CNC(=O)N1N=C(c2ccc(N3CCCCC3)cc2)c2cc(OC)c(OC)cc2CC1C", "note": "(racemic) [Example 139, (±)-7,8-dimethoxy-N,4-dimethyl-1-[4-(piperidin-1-yl)phenyl]-4,5-dihydro-3H-2,3-benzodiazepine-3-carboxamide]", "values": [{"measurement": "IC50", "setting": "MV4-11 cells", "value": 130, "unit": "nM"}, {"measurement": "IC50", "setting": "BRD4 (BD1)", "value": 40, "unit": "nM"}, {"measurement": "IC50", "setting": "MOLM-13 cells", "value": 210, "unit": "nM"}, {"measurement": "IC50", "setting": "KMS-12-PE cells", "value": 110, "unit": "nM"}, {"measurement": "IC50", "setting": "MOLP-8 cells", "value": 130, "unit": "nM"}, {"measurement": "IC50", "setting": "Caov-3 cells", "value": 310, "unit": "nM"}, {"measurement": "IC50", "setting": "LOX-IMVI cells", "value": 380, "unit": "nM"}]}, {"smiles": "CNC(=O)N1N=C(c2ccc(-n3nc(-c4ccccc4)cc3C)cc2)c2cc(OC)c(OC)cc2CC1C", "note": "(racemic) [Example 147, (±)-7,8-Dimethoxy-N,4-dimethyl-1-[4-(5-methyl-3-phenyl-1H-pyrazol-1-yl)phenyl]-4,5-dihydro-3H-2,3-benzodiazepine-3-carboxamide]", "values": [{"measurement": "IC50", "setting": "MV4-11 cells", "value": 50, "unit": "nM"}, {"measurement": "IC50", "setting": "BRD4 (BD1)", "value": 30, "unit": "nM"}, {"measurement": "IC50", "setting": "MOLM-13 cells", "value": 70, "unit": "nM"}, {"measurement": "IC50", "setting": "KMS-12-PE cells", "value": 60, "unit": "nM"}, {"measurement": "IC50", "setting": "MOLP-8 cells", "value": 80, "unit": "nM"}, {"measurement": "IC50", "setting": "Caov-3 cells", "value": 180, "unit": "nM"}, {"measurement": "IC50", "setting": "LOX-IMVI cells", "value": 180, "unit": "nM"}]}, {"smiles": "CNC(=O)N1N=C(c2ccc(-n3nc(-c4ccccc4)cc3C3CC3)cc2)c2cc(OC)c(OC)cc2CC1C", "note": "(racemic) [Example 148, (±)-1-[4-(5-cyclopropyl-3-phenyl-1H-pyrazol-1-yl)phenyl]-7,8-dimethoxy-N,4-dimethyl-4,5-dihydro-3H-2,3-benzodiazepine-3-carboxamide]", "values": [{"measurement": "IC50", "setting": "MV4-11 cells", "value": 70, "unit": "nM"}, {"measurement": "IC50", "setting": "BRD4 (BD1)", "value": 40, "unit": "nM"}, {"measurement": "IC50", "setting": "MOLM-13 cells", "value": 80, "unit": "nM"}, {"measurement": "IC50", "setting": "KMS-12-PE cells", "value": 80, "unit": "nM"}, {"measurement": "IC50", "setting": "MOLP-8 cells", "value": 90, "unit": "nM"}, {"measurement": "IC50", "setting": "Caov-3 cells", "value": 300, "unit": "nM"}, {"measurement": "IC50", "setting": "LOX-IMVI cells", "value": 250, "unit": "nM"}]}, {"smiles": "CNC(=O)N1N=C(c2ccc(-c3c(C)noc3C)cc2)c2cc(Cl)c(OC)cc2CC1C", "note": "(racemic) [Example 157, (±)-8-chloro-1-[4-(3,5-dimethylisoxazol-4-yl)-phenyl]-7-methoxy-N,4-dimethyl-4,5-dihydro-3H-2,3-benzodiazepine-3-carboxamide]", "values": [{"measurement": "IC50", "setting": "MV4-11 cells", "value": 190, "unit": "nM"}, {"measurement": "IC50", "setting": "BRD4 (BD1)", "value": 210, "unit": "nM"}, {"measurement": "IC50", "setting": "MOLM-13 cells", "value": 90, "unit": "nM"}, {"measurement": "IC50", "setting": "KMS-12-PE cells", "value": 240, "unit": "nM"}, {"measurement": "IC50", "setting": "MOLP-8 cells", "value": 120, "unit": "nM"}, {"measurement": "IC50", "setting": "Caov-3 cells", "value": 420, "unit": "nM"}, {"measurement": "IC50", "setting": "LOX-IMVI cells", "value": 580, "unit": "nM"}]}, {"smiles": "CNC(=O)N1N=C(c2ccc(N3CCOC3=O)cc2)c2cc(OC)c(OC)cc2C[C@@H]1C", "note": "[Example 34.1, (4S)-7,8-Dimethoxy-N,4-dimethyl-1-[4-(2-oxooxazolidin-3-yl)phenyl]-4,5-dihydro-3H-2,3-benzodiazepine-3-carboxamide]", "values": [{"measurement": "IC50", "setting": "MV4-11 cells", "value": 120, "unit": "nM"}, {"measurement": "IC50", "setting": "BRD4 (BD1)", "value": 40, "unit": "nM"}, {"measurement": "IC50", "setting": "MOLM-13 cells", "value": 240, "unit": "nM"}, {"measurement": "IC50", "setting": "KMS-12-PE cells", "value": 80, "unit": "nM"}, {"measurement": "IC50", "setting": "MOLP-8 cells", "value": 80, "unit": "nM"}, {"measurement": "IC50", "setting": "Caov-3 cells", "value": 310, "unit": "nM"}, {"measurement": "IC50", "setting": "LOX-IMVI cells", "value": 440, "unit": "nM"}]}]}
